Results from paper PMC8387043, “Host Poly(A) Polymerases PAPD5 and PAPD7 Provide Two Layers of Protection That Ensure the Integrity and Stability of Hepatitis B Virus RNA” (Journal of Virology, 2021).
Read-outs that look alike come from different tables or passages of the source.

How the values were obtained:
HBV [1] = assay: Antiviral assay in HepG2.2.15 cells (HBsAg/HBeAg CLIA, secreted HBV DNA qPCR); format: cell-based, hepatitis B virus
HBV [2] = assay: HBsAg inhibition in PLC/PRF/5 cells; format: cell-based; conditions: Hepatitis B virus
Protocol: AB-452 and RG7834 both belong to the dihydroquinolizinones chemical class. The antiviral activities of AB-452 and its diastereomer ARB-169451 were evaluated using multiple in vitro HBV replication models, including HepG2.2.15 cells (which constitutively express HBV through the integrated viral genome), PLC/PRF/5 cells (a patient-derived hepatocellular carcinoma cell line only expressing HBsAg), and HBV-infected HepG2-NTCP cells or primary human hepatocytes (PHHs) in which viral replication was dependent on cccDNA transcription (Table 1).
HepG2.2.15, HepAD38, and PLC/PRF/5 cells were cultured in Dulbecco’s modified Eagle medium (DMEM)/F12 medium (Corning, NY, USA), supplemented with 10% fetal bovine serum (Gemini, CA, USA), 100 U/ml penicillin, and 100 μg/ml streptomycin. Huh-7 cells (Creative Bioarray, NY, USA) were cultured in RPMI 1640 medium (Basel, Switzerland) containing 10% fetal bovine serum, 100 U/ml penicillin, and 100 μg/ml streptomycin. HepG2-hNTCP-C4 cells were cultured in DMEM medium (Gibco, MA, USA) containing 10% fetal bovine serum and 10 mM HEPES (Gibco).

recombinant human PAPD5 = biological target: T1, recombinant human PAPD5 (Homo sapiens, UniProt Q8NDF8); assay: PAPD5 ATP depletion assay; format: biochemical; conditions: truncated recombinant human PAPD5, ATP depletion
T1 construct: PAPD5 (amino acids 186 to 518; XM_011523275); 10xHis (N); Flag (N); TEV cleavage site (N); host or cells: E. coli BL21(DE3), vector pET-24a(+)
Protocol: (§1) Molecular cloning, expression, and purification of the recombinant human PAPD5 and PAPD7 proteins were performed at Xtal BioStructures (MA, USA). PAPD5 (amino acids 186 to 518; GenBank accession no. XM_011523275) and PAPD7 (amino acids 226 to 558; GenBank accession no. NM_006999.6) genes comprising of nucleotidyltransferase and PAP-associated domains were codon optimized, synthesized, and inserted in the expression vector pET-24a(+) for E. coli expression with 10×His-Flag-tobacco etch virus (TEV) tags at the N terminus. The pET-24a(+) constructs were transformed into E. coli-competent cells BL21(DE3). […] Expression of protein was induced for 16 h with 0.2 mM IPTG (isopropyl-β-D-thiogalactopyranoside) at 18°C. […] Roche). Cell suspension was sonicated 8 × 20 s at 27 to 30 W (power level, 3.5 to 4.0) with 40-s breaks between each pulse. Lysate was cleared by centrifugation in a 50-ml conical tube at 20,000 × g for 30 min (Fiberlite F13-14 × 50cy rotor in a Sorvall RC6 centrifuge). Supernatant was incubated with Ni-charged MagBeads (GenScript; catalog no. […] Bound proteins were washed with 50 ml binding buffer and eluted in elution buffer containing a gradient of imidazole ranging from 5 to 500 mM. Peak fractions were pooled and stored in 50% glycerol at -80°C. Reactions were carried out in duplicate in 96-well low-profile, skirted, white plates (catalog no. AB0800WL; […] The reaction mixtures were incubated at room temperature for 3 h, and ATP depletion was monitored by using Kinase-Glo luminescent kinase kit following the manufacturer's instructions (catalog no. V6712; Promega, WI, USA).

recombinant human PAPD7 = biological target: T2, recombinant human PAPD7 (Homo sapiens, UniProt Q5XG87); assay: PAPD7 ATP depletion assay; format: biochemical
T2 construct: PAPD7 (amino acids 226 to 558; NM_006999.6); 10xHis (N); Flag (N); TEV cleavage site (N); host or cells: E. coli BL21(DE3), vector pET-24a(+)
Protocol: as §1

HBV PRE = HBV PRE cis-element reporter plasmids (HBsAg or Gluc) transfected in Huh-7 cells; conditions: Hepatitis B virus
HBV [3] = assay: HBV replication intermediates and viral proteins in HepG2.2.15 cells (Northern, Western, particle gel, Southern); format: cell-based, hepatitis B virus; conditions: HepG2.2.15, 6 days; ETV, GLS-4, cmpdA 1 μM; AB-452 70 nM
Protocol: Total cellular RNA was extracted from HepG2.2.15 or HepAD38 cells treated with or without antiviral compounds using TRIzol reagent according to the manufacturer's directions (Thermo Fisher Scientific, Waltham, MA). Northern blotting was performed as described previously ([1]). Briefly, total RNA was separated in a 1.5% agarose gel and transferred onto an Amersham Hybond-XL membrane (product no. GERPN303S; GE Healthcare, IL, USA). Membranes were probed with an [α-^32P]UTP (PerkinElmer, CT, USA)-labeled minus strand-specific full-length HBV riboprobe (3.2 kb) transcribed from plasmid pSP65_HBV(+) DNA. Membranes were exposed to a phosphoimager screen, and the hybridization signals were quantified using Image Studio software (Li-Cor Biosciences, NE, USA).
Total intracellular viral core-associated DNA was extracted as described previously ([1]) and analyzed by Southern blotting hybridization with an [α-^32P]UTP-labeled full-length HBV riboprobe (3.2 kb) that specifically hybridized to minus strand of viral DNA. Membranes were exposed to a phosphoimager screen, and the hybridization signals were quantified using Image Studio software.
HepG2.2.15 or HepAD38 cells cultured in a 12-well plate were lysed with 200 μl Laemmli sample buffer (Bio-Rad, PA, USA) supplemented with 2.5% 2-mercaptoethanol (Sigma-Aldrich, MO, USA). […]

HBsAg = HBsAg inhibition in adenovirus-HBsAg-transduced HepG2-NTCP WT and KO clones; format: cell-based, hepatitis B virus; conditions: for EC50: HBsAg, read-out: Adeno infection EC50
PAPD5 = test system: PAPD5; design: method as in PMID 31801065; conditions: read-out: PAPD5 IC50 previously reported; cited from earlier work

T1 sequence (Q8NDF8 106-438 limits assumed): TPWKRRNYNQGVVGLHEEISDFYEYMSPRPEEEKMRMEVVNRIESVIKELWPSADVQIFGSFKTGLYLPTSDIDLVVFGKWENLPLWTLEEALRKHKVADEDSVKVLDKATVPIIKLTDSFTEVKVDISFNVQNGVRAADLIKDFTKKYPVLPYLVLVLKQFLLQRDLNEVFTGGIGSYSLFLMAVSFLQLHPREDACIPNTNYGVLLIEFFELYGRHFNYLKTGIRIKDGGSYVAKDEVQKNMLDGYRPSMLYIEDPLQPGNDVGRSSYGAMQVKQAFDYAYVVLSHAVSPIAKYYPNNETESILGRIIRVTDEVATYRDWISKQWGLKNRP
T2 sequence (Q5XG87 226-558): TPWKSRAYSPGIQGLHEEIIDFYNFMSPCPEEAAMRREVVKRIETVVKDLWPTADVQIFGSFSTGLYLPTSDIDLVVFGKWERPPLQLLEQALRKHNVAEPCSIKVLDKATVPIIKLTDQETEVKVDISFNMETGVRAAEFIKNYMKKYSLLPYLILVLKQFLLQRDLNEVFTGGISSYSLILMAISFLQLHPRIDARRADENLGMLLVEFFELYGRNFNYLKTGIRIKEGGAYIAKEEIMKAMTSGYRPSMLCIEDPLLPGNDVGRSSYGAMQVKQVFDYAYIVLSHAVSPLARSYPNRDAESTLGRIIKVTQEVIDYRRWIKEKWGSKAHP

Question: What does the source list for COCCCOc1cc2c(nc1OC)-c1cc(=O)c(C(=O)O)cn1[C@@H](C(C)C)C2 [ARB-169451]?
Answer: fold weaker toward HBsAg inhibition than AB-452 (HBV [1]): more than 1,000 fold; EC50 (HBV [1]; Hepatitis B virus, HepG2.2.15 cells, read-out: HBsAg EC50): 2230 nM; EC50 (HBV [2]): > 100 nM; IC50 (recombinant human PAPD5): 27000 nM; IC50 (recombinant human PAPD7): > 50000 nM; EC50 (HBV PRE; 120 h, read-out: EC50, Gluc_dHBx (Gluc activity)): > 100 nM; EC50 (HBV PRE; 120 h, read-out: EC50, H133_Gluc (Gluc activity)): > 100 nM; EC50 (HBV PRE; Huh-7, 120 h, read-out: EC50, Gluc_rcSLα (Gluc activity)): > 100 nM; EC50 (HBV PRE; Huh-7, 120 h, read-out: EC50, H133 (HBsAg)): > 100 nM; EC50 (HBV PRE; Huh-7, 120 h, read-out: EC50, H133_dLa (HBsAg)): > 100 nM; EC50 (HBV PRE; Huh-7, 120 h, read-out: EC50, H133_dSLα (HBsAg)): > 100 nM

Question: For C=C1[C@H](CO)[C@@H](O)C[C@@H]1n1cnc2c(=O)[nH]c(N)nc21 [ETV, entecavir, reference compound], which “Effect on HBV replication intermediates and viral proteins” value (HBV [3]) is on record?
Answer: strongly inhibited HBV DNA replication but did not reduce the production of intracellular HBV RNA, core protein levels, or capsid assembly

Question: Which results are given for COCCCOc1cc2c(cc1OC)-c1cc(=O)c(C(=O)O)cn1[C@H](C(C)C)C2 [RG7834, reference compound]?
Answer: IC50 (recombinant human PAPD5): 167 nM; IC50 (recombinant human PAPD7): 1090 nM; Adeno infection FC vs WT (HBsAg; P5_KO (T3-4)): 10.7; EC50 (HBsAg; P5_KO (T3-4)): 126 ± 74.7 nM; Adeno infection FC vs WT (HBsAg; P5_KO (T3-15)): 7.3; EC50 (HBsAg; P5_KO (T3-15)): 85.7 ± 59.8 nM; Adeno infection FC vs WT (HBsAg; P7_KO (T2-8)): 2.0; EC50 (HBsAg; P7_KO (T2-8)): 23.7 ± 15.2 nM; Adeno infection FC vs WT (HBsAg; P7_KO (T2-22)): 0.9; EC50 (HBsAg; P7_KO (T2-22)): 10.8 ± 2.1 nM; Adeno infection FC vs WT (HBsAg; WT (parent)): 1; EC50 (HBsAg; WT (parent) HepG2-NTCP): 11.8 ± 9.6 nM; IC50 (PAPD5): 1.3 nM
